The results in this text go back to patent publication US20220296566A1, “COMBINATION PRODUCT CONTAINING LIMONOID COMPOUND AND ALPHA-GLUCOSIDASE INHIBITOR” (ZHEJIANG YANGSHENGTANG INSTITUTE OF NATURAL MEDICATION CO., …, priority 2019, published 2022).

Common to all, as to format: in vivo
In assay [1] the test system is db/db mice. Kind of assay: Serum insulin by Elisa in db/db mice (Example 4). To be noted: single agent 0.2 g/kg per day by gavage, two weeks, mean ± SD. The source says: (§1) Effects of limonoid compound, acarbose or combination thereof on blood glucose and insulin in mouse type II diabetes model
(§2) In the present embodiment, the limonoid compound was selected from nomilin, deacetylnomilin, nomilin acid, deacetylnomilin acid glycoside, and acarbose single administration group, nomilin single administration group, deacetylnomilin single administration group, nomilin acid single administered group, deacetylnomilin acid glycoside single administration group, and respective combination thereof with acarbose administration groups were set.
Conditions for experimental feeding: as type II diabetes model mice, 6-week-old SPF-grade db/db mice were purchased from the Nanjing Model Biology Institute, and subjected to experimental feeding after 7 days of preliminary feeding. It should be noted that the conditions for raising the mice were as follows: the temperature was 23±1° C., the humidity was 55±10%, the lights were turned on between 7 am and 7 pm (the lights were turned off at other time), and the mice were allowed to freely take in water and feed. The experimental feed was mouse growth-stable feed (GB M2118), and the daily feeding and management of the animals were under the responsibility of the animal security department, which provided the animals with sufficient diet and fresh drinking water daily. […]

The test system of another assay is STZ mice. Nature of the assay: Blood glucose in STZ mouse pancreatic islet β-cell injury model (Example 1). To be noted: STZ ICR mice; single agent 0.02 g/kg per day by gavage, two weeks; 1 h after last administration; mean ± SD. The source says: Effects of limonoid compound, acarbose or combination thereof on blood glucose in mouse pancreatic islet (3-cell injury model […]
Gavage doses: the gavage dose was 0.02 g/kg per day for the limonin group, the gavage dose was 0.02 g/kg per day for the isolimonic acid group, the gavage dose was 0.02 g/kg per day for the limonin glycoside group, the gavage dose was 0.02 g/kg per day for the isolimonic acid glycoside group, the gavage dose of acarbose was 0.02 g/kg per day for the acarbose group, limonin at a dose of 0.01 g/kg and acarbose at a dose of 0.01 g/kg were simultaneously gavaged per day for the limonin/acarbose combination group, isolimonic acid at a dose of 0.01 g/kg and acarbose at a dose of 0.01 g/kg were simultaneously gavaged per day for the isolimonic acid/acarbose combination group, limonin glycoside at a dose of 0.01 g/kg and acarbose at a dose of 0.01 g/kg were simultaneously gavaged per day for the limonin glycoside/acarbose combination group, isolimonic acid glycoside at a dose of 0.01 g/kg and acarbose at a dose of 0.01 g/kg were simultaneously gavaged per day for the isolimonic acid glycoside/acarbose combination group, the gavage volume was 10 mL/kg, and the normal group and the model group were administrated with 10 mL/kg of distilled water. […] The data were expressed as mean and standard deviation. […]

Assay [2] relates to db/db mice. Kind of assay: Blood glucose in mouse type II diabetes model, db/db mice (Example 4). To be noted: single agent 0.2 g/kg per day by gavage, two weeks, 1 h after last administration, mean ± SD.
Source text: as §1, §2
Conditions for experimental feeding: as type II diabetes model mice, 6-week-old SPF-grade db/db mice were purchased from the Nanjing Model Biology Institute, and subjected to experimental feeding after 7 days of preliminary feeding. […]
Gavage doses: nomilin at a dose of 0.2 g/kg was gavaged per day for the nomilin group, deacetylnomilin at a dose of 0.2 g/kg was gavaged per day for the deacetylnomilin group, nomilin acid at a dose of 0.2 g/kg was gavaged per day for the nomilin acid group, deacetylnomilin acid glycoside at a dose of 0.2 g/kg was gavaged per day for the deacetylnomilin acid glycoside group, acarbose at a dose of 0.2 g/kg was gavaged per day for the acarbose group, nomilin at a dose of 0.1 g/kg and acarbose at a dose of 0.1 g/kg were simultaneously gavaged per day for the nomilin combination group, nomilin acid at a dose of 0.1 g/kg and acarbose at a dose of 0.1 g/kg were simultaneously gavaged per day for the nomilin acid combination group, deacetylnomilin at a dose of 0.1 g/kg and acarbose at a dose of 0.1 g/kg were simultaneously gavaged per day for the deacetylnomilin combination group, deacetylnomilin acid glycoside at a dose of 0.1 g/kg and acarbose at a dose of 0.1 g/kg were simultaneously gavaged per day for the deacetylnomilin acid glycoside combination group, the gavage volume was 10 mL/kg, and the normal group and the model group were administrated with 10 mL/kg of distilled water. […] The data were expressed as mean and standard deviation. […]

The structures appear in SMILES notation.

Regarding `C[C@H]1O[C@H](O[C@H]2[C@H](O)[C@@H](O)[C@@H](O[C@H]3[C@H](O)[C@@H](O)C(O)O[C@@H]3CO)O[C@@H]2CO)[C@H](O)[C@@H](O)[C@@H]1N[C@H]1C=C(CO)[C@@H](O)[C@H](O)[C@H]1O` (stereo partly drawn) [Acarbose, acarbose], the Insulin in the assay with db/db mice [1] stood at 8.45 ± 2.21 pg/mL. For the same compound, the values for the Blood glucose value in the assay on STZ mice and with db/db mice [2] were 22.1 ± 3.4 mmol/L and 13.6 ± 2.9 mmol/L, respectively.
